Assays:
ALOMY = test: Post-emergence herbicidal effect, greenhouse pot test; format: in vivo, Alopecurus myosuroides; details: visual rating about 3 weeks after treatment
In short: (§1)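 Weeds sown in sandy loam, greenhouse-grown 2–3 weeks, then sprayed at one-leaf stage with WP or EC formulations in water plus 0.5% additive at 600 l/ha. Rates 20 to 320 g/ha. Visual rating after about 3 weeks versus untreated controls (100% = plants dead, 0% = like control).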

AVEFA = test: as above; format: in vivo, Avena fatua; details: visual rating about 3 weeks after treatment
In short: as §1

SETVI = test: as above; format: in vivo, Setaria viridis
In short: as §1

MATIN = test: as above; format: in vivo, Tripleurospermum inodorum
In short: as §1

PHBPU = test: as above; format: in vivo, Ipomoea purpurea
In short: as §1

ZEAMX = test: Post-emergence herbicidal effect and crop plant compatibility, greenhouse pot test; format: in vivo, Zea mays; details: one-leaf stage, rated visually after about 3 weeks vs untreated controls
In short: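 Greenhouse pot plants in sandy loam receive a one-leaf-stage spray at 20 to 320 g/ha. Activity is assessed visually around 3 weeks afterwards on a 0–100% scale, where 100% means the plants have died.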

ECHCG = test: Post-emergence herbicidal effect, greenhouse pot test; format: in vivo, Echinochloa crus-galli; details: for Post-emergence effect against ECHCG: 20 g/ha, visual rating about 3 weeks after treatment
In short: as §1

DIGSA = test: as above; format: in vivo, Digitaria sanguinalis; details: visual rating about 3 weeks after treatment
In short: as §1

VIOTR = test: as above; format: in vivo, Viola tricolor
In short: as §1

POLCO = test: as above; format: in vivo, Fallopia convolvulus
In short: as §1

AMARE = test: as above; format: in vivo, Amaranthus retroflexus; details: visual rating about 3 weeks after treatment
In short: as §1

ABUTH = test: as above; format: in vivo, Abutilon theophrasti; details: visual rating about 3 weeks after treatment
In short: as §1

KCHSC = test: as above; format: in vivo
In short: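 Visual rating of activity against untreated plants (100% = plants died, 0% = no effect), done about 3 weeks after treatment. Compounds applied at 20–320 g/ha as aqueous spray (600 l/ha, 0.5% additive) from WP or EC formulations onto one-leaf-stage plants grown in sandy loam under greenhouse conditions.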

LOLRI = test: as above; format: in vivo, Lolium rigidum
In short: as §1

VERPE = test: as above; format: in vivo, Veronica persica
In short: as §1

Row | SMILES | Post-emergence effect against ALOMY (ALOMY; 320 g/ha) [%] | Post-emergence effect against AVEFA (AVEFA; 80 g/ha) [%] | Post-emergence effect against AVEFA (AVEFA; 320 g/ha) [%] | Post-emergence effect against SETVI in % (SETVI; 80 g/ha) [%] | Post-emergence effect against SETVI in % (SETVI; 320 g/ha) [%] | Post-emergence effect against MATIN in % (MATIN; 320 g/ha) [%] | Post-emergence effect against PHBPU in % (PHBPU; 80 g/ha) [%] | Post-emergence effect against PHBPU in % (PHBPU; 320 g/ha) [%] | Post-emergence effect against ECHCG (ECHCG) [%] | Post-emergence effect against ECHCG in % (ECHCG; 80 g/ha) [%] | Post-emergence effect against ECHCG in % (ECHCG; 320 g/ha) [%] | Post-emergence effect against DIGSA (DIGSA; 320 g/ha) [%] | Post-emergence effect against VIOTR in % (VIOTR; 80 g/ha) [%] | Post-emergence effect against VIOTR in % (VIOTR; 320 g/ha) [%] | Post-emergence effect against POLCO in % (POLCO; 80 g/ha) [%] | Post-emergence effect against POLCO in % (POLCO; 320 g/ha) [%] | Post-emergence effect against AMARE (AMARE; 80 g/ha) [%] | Post-emergence effect against AMARE (AMARE; 320 g/ha) [%] | Post-emergence effect against ABUTH (ABUTH; 80 g/ha) [%] | Post-emergence effect against ABUTH (ABUTH; 320 g/ha) [%] | also measured
1 | COC(=O)CCOC(=O)C(OC)Oc1nn(-c2ncccc2F)c(-c2cncc(F)c2)c1C1CC1 (stereo not drawn) [Example I-82] | 90 | 90 | 90 | 90 | 90 | 90 | 80 | 90 | 80 | 90 | 90 | 90 | 90 | 90 | 80 | 90 | 90 | 90 | 90 | 90 | Post-emergence effect against SETVI in % (SETVI; 20 g/ha): 90%; Post-emergence effect against MATIN in % (MATIN; 80 g/ha): 80%; Post-emergence effect at 20 g/ha against ZEAMX in % (ZEAMX; 20 g/ha): 20%; Post-emergence effect against DIGSA (DIGSA; 80 g/ha): 90%; Post-emergence effect against VIOTR in % (VIOTR; 20 g/ha): 80%; Post-emergence effect against POLCO in % (POLCO; 20 g/ha): 80%; Post-emergence effect against ABUTH (ABUTH; 20 g/ha): 80%; Post-emergence effect against KCHSC in % (KCHSC; 20 g/ha): 90%; Post-emergence effect against KCHSC in % (KCHSC; 80 g/ha): 90%; Post-emergence effect against KCHSC in % (KCHSC; 320 g/ha): 90%; Post-emergence effect against LOLRI in % (LOLRI; 320 g/ha): 90%; Post-emergence effect against VERPE in % (VERPE; 80 g/ha): 90%; Post-emergence effect against VERPE in % (VERPE; 320 g/ha): 90%
2 | COC(=O)C(OC)Oc1nn(-c2ncccc2F)c(-c2cncc(F)c2)c1C1CC1 (stereo not drawn) [Example I-86] | 90 | 90 | 90 | 90 | 90 | 90 | 90 | 90 | 80 | 90 | 90 | 80 | 90 | 90 | 80 | 90 | 80 | 90 | 80 | 80 | Post-emergence effect against ALOMY (ALOMY; 80 g/ha): 90%; pest or weed control at 20 g/ha (AVEFA; Avena fatua, 504 h, 20 g/ha, read-out: Post-emergence effect against AVEFA): 80%; Post-emergence effect against PHBPU in % (PHBPU; 20 g/ha): 80%; plant injury at 20 g/ha (ZEAMX; Zea mays, 504 h, 20 g/ha, read-out: Post-emergence effect at 20 g/ha against ZEAMX in %): 0%; plant injury at 80 g/ha (ZEAMX; Zea mays, 504 h, 80 g/ha, read-out: Post-emergence effect at 80 g/ha against ZEAMX in %): 0%; pest or weed control at 20 g/ha (POLCO; Fallopia convolvulus, 504 h, 20 g/ha, read-out: Post-emergence effect against POLCO in %): 80%; Post-emergence effect against KCHSC in % (KCHSC; 80 g/ha): 90%; Post-emergence effect against KCHSC in % (KCHSC; 320 g/ha): 90%; Post-emergence effect against LOLRI in % (LOLRI; 80 g/ha): 90%; Post-emergence effect against LOLRI in % (LOLRI; 320 g/ha): 90%; pest or weed control at 20 g/ha (LOLRI; Lolium rigidum, 504 h, 20 g/ha, read-out: Post-emergence effect against LOLRI in %): 80%; Post-emergence effect against VERPE in % (VERPE; 80 g/ha): 80%; Post-emergence effect against VERPE in % (VERPE; 320 g/ha): 90%

From patent US20240391862A1, “(1,4,5-TRISUBSTITUTED-1H-PYRAZOL-3-YL)OXY-2-ALKOXY ALKYL ACIDS AND THEIR DERIVATIVES, THEIR SALTS AND THEIR USE AS HERBICIDAL AGENTS” (Bayer AKtiengesellschaft, priority 2021, published 2024)
